The results in this text go back to PubChem BioAssay (NCI).

Holding throughout (assay): NCI-60 cell line screen, 48 h
For experiment [1], the system named is KM12 colon.
Experiment [2] has as its system TK-10 renal.
Experiment [3] deals with SNB-75 CNS.
Experiment [4] has as its system SF-268 CNS.
Experiment [5] relates to MCF7 breast.
Experiment [6] concerns NCI-H460 lung.
Experiment [7] has as its system HOP-62 NSCLC.
For experiment [8], the system named is SK-MEL-28 melanoma.
In experiment [9] the test system is K-562 leukemia.
In experiment [10] the test system is RPMI-8226 leukemia.

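Growth conditions: 96-well plates. Treatment: test compound, 48 hours, 5 concentrations. Analysis: linear interpolation between bracketing concentrations; unreached endpoints set to highest concentration. The concentration for 50% growth inhibition is given as GI50. Definition used: TGI = concentration required for complete inhibition of growth.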 Where only a bound is given, the exact number is not on record here.

Consider `COc1cc(CC2CC(c3ccc4c(c3)OCO4)OC2=O)cc(OC)c1OC` (stereo not given), for which the TGI in experiment [1], in experiment [2], in experiment [3], in experiment [4], in experiment [5] and in experiment [6] was over 100 µM throughout. Also, the TGI in experiment [7], in [8], in experiment [9] and in experiment [10] was over 100 µM in each case.

For `CC(C)N(Cc1ccccc1)S(=O)(=O)c1n[nH]c(C(C)(C)C)n1`, the TGI in experiment [1], in experiment [2], in experiment [3], in [4], in [5] and in experiment [6] was over 100 µM each time. Moreover, the TGI in experiment [7], in [8], in experiment [9] and in experiment [10] was over 100 µM throughout.

As to `S=C(Nc1ccccc1)N1CCn2c1nsc2=Nc1ccccc1`, the GI50 in experiment [1] is over 100 µM; in experiment [2] it was 26.6 µM; in experiment [3], 66.5 µM; in experiment [4], over 100 µM; in experiment [5], over 100 µM; in experiment [6] it was over 100 µM. The GI50 is over 100 µM in experiment [7], over 100 µM in [8], 31.3 µM in [9] and 40.9 µM in experiment [10]. For the same molecule, the TGI was over 100 µM in experiment [1]; 95 µM in experiment [2]; over 100 µM in experiment [3]; over 100 µM in [4]; over 100 µM in experiment [5]; over 100 µM in experiment [6]. Besides, the TGI in [7], in [8], in experiment [9] and in experiment [10] was over 100 µM each time.
